From patent publication US4181729A, “Phenyl or phenoxy substituted spiro-imidazolidinedione derivatives” (Pfizer Inc., priority 1979, dated 1980)
pIC50: −log10 of the molar value.

Key:
aldose reductase = target: T1, aldose reductase (Bos taurus, UniProt P16116); experiment: Aldose reductase inhibitory activity; assay type: biochemical, calf lens (partially purified enzyme); details: partially purified aldose reductase from calf lens; read-out: 50% Inhibitory Concentration
T1 construct: partially purified aldose reductase enzyme obtained from calf lens; from tissue; host or cells: calf lens
Description: The derivatives prepared in Examples 1-6 were tested for their ability to reduce or inhibit aldose reductase enzyme activity, following the procedure described in U.S. Pat. No. 3,821,383 and based on the procedure of Hayman et. al., Journal of Biological Chemistry, 240, 877 (1965). The substrate employed was partially purified aldose reductase enzyme obtained from calf lens. The drug was tested to determine the concentration that would cause 50 percent inhibition of enzyme activity.

[1] = system: sorbitol accumulation in the sciatic nerve; experiment: Inhibition of sorbitol accumulation in the sciatic nerve of streptozotocinized (diabetic) rats; assay type: in vivo; details: oral at 4, 8 and 24 h after streptozotocin, rat sciatic nerve, 27 h after induction of diabetes
Description: Some of the Examples of derivatives prepared above were also tested for their ability to reduce or inhibit sorbitol accumulation in the sciatic nerve of streptozotocinized (i.e., diabetic) rats essentially by the procedure described in U.S. Pat. No. 3,821,383. In the present study, the amount of sorbitol accumulation in the sciatic nerves was measured 27 hours after induction of diabetes. The compounds were administered orally at the dose level indicated at 4, 8 and 24 hours following the administration of streptozotocin. The results obtained in this manner are presented in terms of percent inhibition (%) afforded by the test compound compared to the control where no compound was administered (i.e., the untreated animal where sorbitol levels normally rise from approximately […] tissue to as high as […] tissue in the 27-hour test period).

Structure (SMILES)	pIC50 (aldose reductase)	% Inhibition (sorbitol accumulation) ([1]; 10 mg./kg. t.i.d.)	% Inhibition (sorbitol accumulation) ([1]; 1.5 mg./kg. t.i.d.)	% Inhibition (sorbitol accumulation) ([1]; 25 mg./kg. t.i.d.)
O=C1NC(=O)C2(CCOc3ccc(-c4ccccc4)cc32)N1 (stereo not shown) [Example 3, 6'-phenyl-spiro[imidazolidine-4,4'-chroman]-2,5-dione]	–	–	0%	–
O=C1NC(=O)C2(N1)c1ccccc1CCC2c1ccccc1 (stereo not shown) [Example 1, 1',2',3',4'-tetrahydro-3'-phenyl-spiro[imidazolidine-4,4'-naphthalene]-2,5-dione]	< 4.00	–	–	18%
O=C1NC(=O)C2(CCC(c3ccccc3)c3ccccc32)N1 (stereo not shown) [Example 2, 1',2',3',4'-tetrahydro-1'-phenyl-spiro[imidazolidine-4,4'-naphthalene]-2,5-dione]	4.00	–	–	27%

More lines, in order of rising pIC50 (aldose reductase), values ahead:

pIC50 (aldose reductase)	Structure (SMILES)	% Inhibition (sorbitol accumulation) ([1]; 10 mg./kg. t.i.d.)	% Inhibition (sorbitol accumulation) ([1]; 1.5 mg./kg. t.i.d.)	% Inhibition (sorbitol accumulation) ([1]; 25 mg./kg. t.i.d.)
5.00	O=C1NC(=O)C2(CCOc3c(Cl)cc(-c4ccccc4)cc32)N1 (stereo not shown) [Example 6, 8'-chloro-6'-phenyl-spiro[imidazolidine-4,4'-chroman]-2,5-dione]	–	–	–
5.00	O=C1NC(=O)C2(CCOc3ccc(Oc4ccccc4)cc32)N1 (stereo not shown) [Example 5, 6'-phenoxy-spiro[imidazolidine-4,4'-chroman]-2,5-dione]	–	0%	–
6.00	O=C1NC(=O)C2(CCOc3c(-c4ccccc4)cccc32)N1 (stereo not shown) [Example 4, 8'-phenyl-spiro[imidazolidine-4,4'-chroman]-2,5-dione]	54%	–	–
